Reference: patent US5002942A, “1,5-benzothiazepine derivatives, their preparation and their use in the treatment of cardiovascular disorders” (Sankyo Company, Limited, priority 1988, dated 1991)

Tests used:
calcium channel = target: T1, calcium channel (Cavia porcellus, UniProt O35505); assay: Calcium channel blocking action (calcium-induced contraction of excised taenia coli); details: 0.5 h, test compound 10^-8 g/ml, 30 minutes incubation, guinea pig taenia coli, hydrochlorides (Example 34: fumarate)
T1 construct: The taenia coli excised from a male guinea pig; from tissue; host or cells: guinea pig taenia coli (excised smooth muscle strip)
Method: The taenia coli excised from a male guinea pig weighing from 250 to 300 g was cut into a length of 6 to 7 mm and suspended in an organ bath filled with Tylord's solution (sodium chloride 97 mM, potassium chloride 40 mM, sodium hydrogen carbonate 11.9 mM, disodium hydrogen phosphate 0.4 mM, glucose 5.5 mM; pH 7.1). The bath solution contained no calcium ions and was aerated with a mixture of 95% oxygen and 5% carbon dioxide by volume. To this solution were added 10 and 30 mM solutions of calcium chloride at 30 minute intervals to obtain a final concentration of 0.4 mM. The tension which developed 1n the taenia coli was measured by an isometric transducer. The organ bath was then washed twice or more with Tylord's solution containing no calcium ions after which it was allowed to equilibrate for 30 minutes. After the muscle had stabilised, test compound dissolved in physiological saline was added to the bath to a final concentration of 10^-8 g/ml, and the bath was incubated for 30 minutes. 30 and 100 mM solutions of calcium chloride were again added to the bath, and the developed tension was measured. From the magnitude of the calcium-induced contraction before and after the test drug had been added the inhibitory rate was calculated using the following formula: [formula] where: Co=contraction induced by calcium ion before a test drug was added: and
Ct=contraction induced by calcium ion after the test drug had been added.
In addition to the compounds of the invention, we also carried out the same test with the following compounds of the prior art: (±)-diltiazem, […], (±)-8-chlorodiltiazem (8-Cl-diltiazem). (±)-8-methoxydiltiazem (8-MeO-diltiazem) and (±)-8-benzyloxydiltiazem (8-BzO-diltiazem).
In the Table, the compounds of the invention are identified by the number of the one of the foregoing Examples in which the compound was prepared. The prior art compounds are identified by the abbreviated generic names shown above in parentheses.
All of the compounds except for that of Example 34 were employed as the hydrochlorides; that of Example 34 was employed as the fumarate.

[1] = tested on: SHR (spontaneously hypertensive rats); assay: Antihypertensive action in SHR; format: in vivo; details: conscious male SHR, hydrochlorides, 24 hours
Method: Male SHR (spontaneously hypertensive rats), 23 to 30 weeks old, were anesthesized with sodium pentobarbital 50 mg/kg intraperitoneal administration), and a polyethylene cannula was inserted through the left femoral artery into the abdominal aorta. The other end of the cannula was led out of the body and fixed at the back of the neck. One week after the operation, when the animal had recovered from the stress of the surgery, the other end of the cannula was connected to a blood pressure measuring device, which was constructed according to the directions of Laffan et al. [Laffan, P.J., Peterson A., Hitch S,W. and Jeunelot C., Cardiovascular Res. 6. 319-324 (1972)], but with slight modifications. The blood pressure and heart rate of the conscious and […] SHR were measured. After the blood pressure and the heart rate had stabilised for more than one hour, the test drug was administered by […]. After administration of the test sample, the blood pressure and the heart rate were measured every 15 minutes over a period of 24 hours. The maximum decrease in blood pressure and the half-time of the blood pressure lowering activity thus determined are shown in Table 6.
All of the test compounds were employed as the hydrochlorides.

[2] = Rattus norvegicus, po, Dose 10 mg/kg, read-out: Maximum hypotension (%)

T1 sequence (O35505 whole entry): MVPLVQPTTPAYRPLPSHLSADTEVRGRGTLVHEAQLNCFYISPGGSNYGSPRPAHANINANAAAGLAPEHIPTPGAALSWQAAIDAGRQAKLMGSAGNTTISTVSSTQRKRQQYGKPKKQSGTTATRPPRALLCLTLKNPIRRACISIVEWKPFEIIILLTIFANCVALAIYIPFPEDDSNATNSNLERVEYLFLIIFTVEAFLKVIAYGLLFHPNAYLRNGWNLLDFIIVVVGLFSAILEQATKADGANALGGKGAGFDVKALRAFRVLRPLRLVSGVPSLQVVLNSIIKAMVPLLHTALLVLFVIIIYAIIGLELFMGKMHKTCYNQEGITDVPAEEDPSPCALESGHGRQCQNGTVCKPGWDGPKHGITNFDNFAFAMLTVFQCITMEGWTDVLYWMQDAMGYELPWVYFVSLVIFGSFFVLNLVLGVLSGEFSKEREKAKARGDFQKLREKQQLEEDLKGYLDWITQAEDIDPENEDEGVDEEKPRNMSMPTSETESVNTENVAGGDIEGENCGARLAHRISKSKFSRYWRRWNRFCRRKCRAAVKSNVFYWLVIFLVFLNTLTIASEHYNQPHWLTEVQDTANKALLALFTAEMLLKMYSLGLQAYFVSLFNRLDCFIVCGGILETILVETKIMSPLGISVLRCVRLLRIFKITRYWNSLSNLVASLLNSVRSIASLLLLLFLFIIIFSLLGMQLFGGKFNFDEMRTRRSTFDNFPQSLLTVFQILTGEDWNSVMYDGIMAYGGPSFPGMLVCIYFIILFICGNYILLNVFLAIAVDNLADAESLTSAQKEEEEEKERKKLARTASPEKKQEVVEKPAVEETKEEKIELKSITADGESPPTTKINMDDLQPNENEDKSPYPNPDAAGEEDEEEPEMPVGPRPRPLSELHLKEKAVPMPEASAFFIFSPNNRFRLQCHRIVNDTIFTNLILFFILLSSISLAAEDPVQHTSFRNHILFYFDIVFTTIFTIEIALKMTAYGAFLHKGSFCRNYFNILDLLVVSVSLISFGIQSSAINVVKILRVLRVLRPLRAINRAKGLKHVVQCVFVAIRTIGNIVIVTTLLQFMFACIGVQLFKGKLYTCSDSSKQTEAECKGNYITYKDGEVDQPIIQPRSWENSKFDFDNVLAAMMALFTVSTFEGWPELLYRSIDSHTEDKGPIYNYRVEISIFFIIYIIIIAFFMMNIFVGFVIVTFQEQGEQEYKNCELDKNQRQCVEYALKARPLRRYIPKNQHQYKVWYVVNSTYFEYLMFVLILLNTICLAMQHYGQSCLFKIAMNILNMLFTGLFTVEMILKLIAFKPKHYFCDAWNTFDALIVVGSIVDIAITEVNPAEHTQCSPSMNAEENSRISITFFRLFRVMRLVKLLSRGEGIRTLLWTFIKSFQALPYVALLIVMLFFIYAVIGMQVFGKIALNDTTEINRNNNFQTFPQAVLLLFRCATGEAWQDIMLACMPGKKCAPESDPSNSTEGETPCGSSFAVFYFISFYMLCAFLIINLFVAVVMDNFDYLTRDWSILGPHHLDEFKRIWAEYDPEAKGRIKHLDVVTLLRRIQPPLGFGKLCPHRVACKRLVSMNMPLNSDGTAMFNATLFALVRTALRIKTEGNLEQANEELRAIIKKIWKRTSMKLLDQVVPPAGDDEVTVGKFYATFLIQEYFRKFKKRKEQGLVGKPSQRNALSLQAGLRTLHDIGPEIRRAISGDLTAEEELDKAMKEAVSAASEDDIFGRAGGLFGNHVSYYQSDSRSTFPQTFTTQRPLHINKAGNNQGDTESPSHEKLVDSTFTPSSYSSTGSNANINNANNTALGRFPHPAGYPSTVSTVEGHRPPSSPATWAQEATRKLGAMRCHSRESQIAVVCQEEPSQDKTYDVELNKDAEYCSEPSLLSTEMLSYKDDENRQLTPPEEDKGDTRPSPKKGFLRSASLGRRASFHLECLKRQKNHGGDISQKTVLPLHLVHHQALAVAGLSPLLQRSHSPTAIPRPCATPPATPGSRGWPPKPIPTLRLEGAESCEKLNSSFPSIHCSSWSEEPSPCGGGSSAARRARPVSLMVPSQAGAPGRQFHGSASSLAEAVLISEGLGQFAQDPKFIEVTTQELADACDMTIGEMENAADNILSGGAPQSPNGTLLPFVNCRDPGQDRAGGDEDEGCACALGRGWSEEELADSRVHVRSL

Row | SMILES | inhibition at 0.01 µg/mL (calcium channel) [%] | Half-time of hypotension action ([1]; Dose 10 mg/kg) [h] | change in vivo at 10 mg/kg [1, 2] [%] | Half-time of hypotension action ([1]; Dose 30 mg/kg) [h] | change in vivo at 30 mg/kg ([1]; Rattus norvegicus, po, Dose 30 mg/kg, read-out: Maximum hypotension (%)) [%]
1 | COc1ccc([C@@H]2Sc3cc(Cc4cccs4)ccc3N(CCN(C)C)C(=O)[C@@H]2OC(C)=O)cc1 [Example 20, (2S, 3S)-3-Acetoxy-5-(2-dimethylaminoethyl)-2,3-dihydro-2-(4-Methoxyphenyl)-8-(2-thienylmethyl)-1,5-benzothiazepin-4(5H)-one] | 57 | 8.5 | -24 |  | 
2 | COc1ccc([C@@H]2Sc3cc(Oc4ccc(F)cc4)ccc3N(CCN(C)C)C(=O)[C@@H]2OC(C)=O)cc1 [Example 14, (2S, 3S)-3-Acetoxy-5-(2-dimethylaminoethyl)-8-(4-fluoro-phenoxy)-2,3-dihydro-2-(4-methoxyphenyl)-1,5-benzothiazpin-4(5H)-one] | 94 | 12.7 | -37 |  | 
3 | COc1ccc([C@@H]2Sc3cc(Oc4ccccc4)ccc3N(CCN(C)C)C(=O)[C@@H]2OC(C)=O)cc1F (racemic) [Example 4, (±)-Cis-3-acetoxy-5-(2-dimethylaminoethyl)-2-(3-fluoro-4-methoxyphenyl)-2,3-dihydro-8-phenoxy-1,5-benzothiazepin-4(5H)-one] | 84 |  |  | 16.0 | -36
